Results taken from ChEMBL document CHEMBL1681705, “Optimisation of ITK inhibitors through successive iterative design cycles” (Bioorg Med Chem Lett, 2011).

Experiments:
[1] = Inhibition of JNK2a2 at 0.1 uM; settings: values are per cent of control
[2] = biological target: ALK tyrosine kinase receptor (Homo sapiens) (UniProt Q9UM73); test: Inhibition of ALK at 1 uM; values are per cent of control
[3] = biological target: Serine/threonine-protein kinase PAK 2 (Homo sapiens) (UniProt Q13177); test: Inhibition of PAK2 at 1 uM; values are per cent of control
[4] = biological target: High affinity nerve growth factor receptor (Homo sapiens) (UniProt P04629); test: Inhibition of TrkA at 1 uM; values are per cent of control
[5] = biological target: BDNF/NT-3 growth factors receptor (Homo sapiens) (UniProt Q16620); test: Inhibition of TrkB at 1 uM; values are per cent of control
[6] = biological target: T1, Ephrin type-A receptor 3 (Homo sapiens) (UniProt P29320); test: Inhibition of EphA3 at 1 uM; values are per cent of control
T1 sequence (whole entry): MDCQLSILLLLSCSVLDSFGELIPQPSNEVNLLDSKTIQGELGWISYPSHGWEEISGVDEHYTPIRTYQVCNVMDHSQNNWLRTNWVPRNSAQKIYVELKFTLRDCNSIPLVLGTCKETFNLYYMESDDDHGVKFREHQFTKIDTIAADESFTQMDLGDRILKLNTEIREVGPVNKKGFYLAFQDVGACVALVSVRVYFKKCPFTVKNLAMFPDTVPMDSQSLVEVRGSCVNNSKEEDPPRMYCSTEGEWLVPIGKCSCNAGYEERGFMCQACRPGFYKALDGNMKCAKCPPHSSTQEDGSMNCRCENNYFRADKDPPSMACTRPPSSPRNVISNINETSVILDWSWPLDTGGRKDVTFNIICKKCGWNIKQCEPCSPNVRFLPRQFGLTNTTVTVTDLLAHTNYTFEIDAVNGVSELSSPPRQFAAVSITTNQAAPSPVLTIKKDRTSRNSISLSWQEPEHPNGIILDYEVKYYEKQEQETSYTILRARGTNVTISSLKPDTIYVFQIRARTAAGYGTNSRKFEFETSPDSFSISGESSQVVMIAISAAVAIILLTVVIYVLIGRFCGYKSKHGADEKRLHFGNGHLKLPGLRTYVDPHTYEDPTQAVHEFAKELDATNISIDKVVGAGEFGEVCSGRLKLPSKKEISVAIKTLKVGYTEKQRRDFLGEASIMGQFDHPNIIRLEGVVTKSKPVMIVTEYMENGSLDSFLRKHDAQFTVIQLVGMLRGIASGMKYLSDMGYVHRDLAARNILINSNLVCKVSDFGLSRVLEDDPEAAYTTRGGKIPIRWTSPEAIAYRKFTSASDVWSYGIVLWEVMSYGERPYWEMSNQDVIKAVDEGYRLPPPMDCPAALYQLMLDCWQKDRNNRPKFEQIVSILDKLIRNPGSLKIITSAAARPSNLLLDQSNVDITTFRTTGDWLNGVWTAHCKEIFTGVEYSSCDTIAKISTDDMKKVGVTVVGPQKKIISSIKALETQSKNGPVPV

[7] = biological target: T2, Ephrin type-B receptor 3 (Homo sapiens) (UniProt P54753); test: Inhibition of EphB3 at 1 uM; values are per cent of control
T2 sequence (whole entry): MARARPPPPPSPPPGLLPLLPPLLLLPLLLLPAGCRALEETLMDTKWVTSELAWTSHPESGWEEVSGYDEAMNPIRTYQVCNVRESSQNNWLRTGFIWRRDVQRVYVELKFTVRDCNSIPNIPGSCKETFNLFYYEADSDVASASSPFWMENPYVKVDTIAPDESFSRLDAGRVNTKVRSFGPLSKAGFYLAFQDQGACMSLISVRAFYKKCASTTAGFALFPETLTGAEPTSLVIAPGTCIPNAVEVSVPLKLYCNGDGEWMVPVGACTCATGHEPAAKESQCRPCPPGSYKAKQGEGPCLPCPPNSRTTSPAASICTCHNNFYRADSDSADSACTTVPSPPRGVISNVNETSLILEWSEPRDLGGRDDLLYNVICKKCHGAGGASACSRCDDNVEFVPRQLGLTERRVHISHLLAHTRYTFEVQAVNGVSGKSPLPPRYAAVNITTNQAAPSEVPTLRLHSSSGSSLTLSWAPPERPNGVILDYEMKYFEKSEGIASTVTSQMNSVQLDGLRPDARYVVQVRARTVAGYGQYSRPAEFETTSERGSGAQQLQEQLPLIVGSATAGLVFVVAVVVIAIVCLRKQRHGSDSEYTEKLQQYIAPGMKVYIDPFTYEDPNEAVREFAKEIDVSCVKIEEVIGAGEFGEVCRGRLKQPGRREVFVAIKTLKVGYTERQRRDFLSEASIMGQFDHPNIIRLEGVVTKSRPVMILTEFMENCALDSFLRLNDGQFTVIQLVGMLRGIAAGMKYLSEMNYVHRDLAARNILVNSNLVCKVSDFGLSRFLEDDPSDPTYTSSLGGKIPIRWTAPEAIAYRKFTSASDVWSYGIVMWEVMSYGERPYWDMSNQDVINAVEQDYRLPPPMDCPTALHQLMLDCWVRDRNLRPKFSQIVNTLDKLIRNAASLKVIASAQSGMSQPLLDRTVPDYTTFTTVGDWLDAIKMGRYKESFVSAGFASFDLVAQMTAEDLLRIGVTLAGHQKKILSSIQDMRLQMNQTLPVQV

[8] = biological target: Fibroblast growth factor receptor 2 (Homo sapiens) (UniProt P21802); test: Inhibition of FGFR2 at 1 uM; values are per cent of control
[9] = biological target: Serine/threonine-protein kinase 33 (Homo sapiens) (UniProt Q9BYT3); test: Inhibition of STK33 at 1 uM; values are per cent of control
[10] = biological target: Calcium/calmodulin-dependent protein kinase type 1 (Homo sapiens) (UniProt Q14012); test: Inhibition of CaMK1 at 0.1 uM; values are per cent of control
[11] = biological target: Proto-oncogene tyrosine-protein kinase Src (Homo sapiens) (UniProt P12931); test: Inhibition of c-SRC at 0.1 uM; values are per cent of control
[12] = biological target: Fibroblast growth factor receptor 4 (Homo sapiens) (UniProt P22455); test: Inhibition of FGFR4 at 0.1 uM; values are per cent of control
[13] = biological target: Cyclin-dependent kinase 5/CDK5 activator 1 (Homo sapiens) (UniProt Q00535+Q15078); test: Inhibition of CDK5/p35 at 1 uM; values are per cent of control
Chain of Cyclin-dependent kinase 5/CDK5 activator 1 (Homo sapiens) (Q00535 whole entry): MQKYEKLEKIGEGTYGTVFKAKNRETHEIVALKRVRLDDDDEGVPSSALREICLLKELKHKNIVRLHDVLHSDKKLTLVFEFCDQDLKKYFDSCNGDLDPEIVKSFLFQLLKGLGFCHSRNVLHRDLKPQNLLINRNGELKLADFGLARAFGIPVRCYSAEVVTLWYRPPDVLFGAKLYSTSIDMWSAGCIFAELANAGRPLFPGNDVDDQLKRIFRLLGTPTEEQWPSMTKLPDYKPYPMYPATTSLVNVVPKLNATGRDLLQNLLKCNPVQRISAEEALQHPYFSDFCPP
Chain of Cyclin-dependent kinase 5/CDK5 activator 1 (Homo sapiens) (Q15078 99-307 partner limits assumed): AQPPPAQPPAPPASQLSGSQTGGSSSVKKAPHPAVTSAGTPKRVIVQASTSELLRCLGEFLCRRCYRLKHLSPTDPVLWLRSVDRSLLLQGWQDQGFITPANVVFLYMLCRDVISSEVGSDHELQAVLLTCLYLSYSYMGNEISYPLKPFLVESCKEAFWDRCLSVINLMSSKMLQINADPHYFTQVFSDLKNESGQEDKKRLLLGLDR

Chain of Serine/threonine-protein kinase 33 (Homo sapiens) (Q9BYT3 whole entry, looked up): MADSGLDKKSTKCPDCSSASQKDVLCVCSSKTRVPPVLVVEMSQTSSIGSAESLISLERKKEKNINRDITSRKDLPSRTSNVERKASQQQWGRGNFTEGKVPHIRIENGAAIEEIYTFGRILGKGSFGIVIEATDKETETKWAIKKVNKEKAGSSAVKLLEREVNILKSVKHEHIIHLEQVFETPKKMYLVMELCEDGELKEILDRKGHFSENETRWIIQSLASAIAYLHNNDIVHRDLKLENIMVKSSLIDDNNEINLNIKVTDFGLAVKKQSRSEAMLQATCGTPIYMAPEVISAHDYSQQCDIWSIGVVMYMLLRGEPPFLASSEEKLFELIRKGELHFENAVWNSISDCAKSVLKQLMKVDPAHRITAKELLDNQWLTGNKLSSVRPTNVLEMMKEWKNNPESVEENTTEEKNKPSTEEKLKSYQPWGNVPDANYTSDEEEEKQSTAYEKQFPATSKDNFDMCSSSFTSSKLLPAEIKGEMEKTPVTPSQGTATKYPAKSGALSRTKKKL
Chain of Serine/threonine-protein kinase PAK 2 (Homo sapiens) (Q13177 whole entry): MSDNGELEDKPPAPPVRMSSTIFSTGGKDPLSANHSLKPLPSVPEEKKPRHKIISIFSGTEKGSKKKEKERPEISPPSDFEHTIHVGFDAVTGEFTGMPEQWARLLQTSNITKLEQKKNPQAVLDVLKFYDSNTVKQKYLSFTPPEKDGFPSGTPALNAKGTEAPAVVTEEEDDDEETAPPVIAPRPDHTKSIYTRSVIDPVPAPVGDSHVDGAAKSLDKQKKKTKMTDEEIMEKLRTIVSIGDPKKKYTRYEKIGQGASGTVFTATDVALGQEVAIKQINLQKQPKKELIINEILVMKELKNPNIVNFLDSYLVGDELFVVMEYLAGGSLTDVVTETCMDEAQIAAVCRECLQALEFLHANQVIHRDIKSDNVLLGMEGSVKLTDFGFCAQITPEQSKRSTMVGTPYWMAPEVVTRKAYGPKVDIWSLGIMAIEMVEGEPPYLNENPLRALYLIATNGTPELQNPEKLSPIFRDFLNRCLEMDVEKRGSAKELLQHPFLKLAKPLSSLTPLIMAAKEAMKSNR
Chain of Proto-oncogene tyrosine-protein kinase Src (Homo sapiens) (P12931 2-536 limits assumed): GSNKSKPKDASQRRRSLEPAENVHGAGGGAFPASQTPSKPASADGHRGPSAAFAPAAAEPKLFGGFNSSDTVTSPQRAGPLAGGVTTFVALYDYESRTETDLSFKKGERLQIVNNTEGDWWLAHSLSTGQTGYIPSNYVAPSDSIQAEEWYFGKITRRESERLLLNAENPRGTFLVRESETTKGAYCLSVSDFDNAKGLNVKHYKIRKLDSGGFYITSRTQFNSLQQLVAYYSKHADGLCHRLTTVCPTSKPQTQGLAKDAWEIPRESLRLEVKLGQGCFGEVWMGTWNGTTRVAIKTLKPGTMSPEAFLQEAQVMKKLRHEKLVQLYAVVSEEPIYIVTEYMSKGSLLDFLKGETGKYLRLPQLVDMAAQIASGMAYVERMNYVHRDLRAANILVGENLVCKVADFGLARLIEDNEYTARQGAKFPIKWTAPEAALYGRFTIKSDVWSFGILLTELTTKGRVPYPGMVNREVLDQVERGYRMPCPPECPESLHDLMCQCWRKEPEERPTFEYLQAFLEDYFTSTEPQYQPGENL
Chain of High affinity nerve growth factor receptor (Homo sapiens) (P04629 33-796 limits assumed): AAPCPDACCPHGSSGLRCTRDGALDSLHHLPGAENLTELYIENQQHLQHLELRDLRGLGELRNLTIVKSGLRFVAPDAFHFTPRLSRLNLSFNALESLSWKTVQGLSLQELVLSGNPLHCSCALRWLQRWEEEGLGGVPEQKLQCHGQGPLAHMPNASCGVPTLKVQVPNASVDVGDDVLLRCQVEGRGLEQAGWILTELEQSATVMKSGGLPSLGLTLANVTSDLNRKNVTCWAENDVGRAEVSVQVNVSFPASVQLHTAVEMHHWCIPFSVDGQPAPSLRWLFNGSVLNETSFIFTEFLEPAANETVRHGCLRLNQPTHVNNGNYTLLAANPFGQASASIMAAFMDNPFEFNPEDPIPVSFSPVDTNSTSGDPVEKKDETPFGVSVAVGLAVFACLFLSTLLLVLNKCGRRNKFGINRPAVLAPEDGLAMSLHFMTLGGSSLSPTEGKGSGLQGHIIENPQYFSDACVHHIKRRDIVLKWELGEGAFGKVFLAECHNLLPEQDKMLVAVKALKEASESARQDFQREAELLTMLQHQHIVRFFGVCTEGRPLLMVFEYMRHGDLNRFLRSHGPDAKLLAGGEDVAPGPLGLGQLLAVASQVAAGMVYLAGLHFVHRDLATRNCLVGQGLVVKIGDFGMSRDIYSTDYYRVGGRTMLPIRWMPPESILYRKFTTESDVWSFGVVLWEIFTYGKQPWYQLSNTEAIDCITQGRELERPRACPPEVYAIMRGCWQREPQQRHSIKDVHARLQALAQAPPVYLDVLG
Chain of Fibroblast growth factor receptor 4 (Homo sapiens) (P22455 22-802 limits assumed): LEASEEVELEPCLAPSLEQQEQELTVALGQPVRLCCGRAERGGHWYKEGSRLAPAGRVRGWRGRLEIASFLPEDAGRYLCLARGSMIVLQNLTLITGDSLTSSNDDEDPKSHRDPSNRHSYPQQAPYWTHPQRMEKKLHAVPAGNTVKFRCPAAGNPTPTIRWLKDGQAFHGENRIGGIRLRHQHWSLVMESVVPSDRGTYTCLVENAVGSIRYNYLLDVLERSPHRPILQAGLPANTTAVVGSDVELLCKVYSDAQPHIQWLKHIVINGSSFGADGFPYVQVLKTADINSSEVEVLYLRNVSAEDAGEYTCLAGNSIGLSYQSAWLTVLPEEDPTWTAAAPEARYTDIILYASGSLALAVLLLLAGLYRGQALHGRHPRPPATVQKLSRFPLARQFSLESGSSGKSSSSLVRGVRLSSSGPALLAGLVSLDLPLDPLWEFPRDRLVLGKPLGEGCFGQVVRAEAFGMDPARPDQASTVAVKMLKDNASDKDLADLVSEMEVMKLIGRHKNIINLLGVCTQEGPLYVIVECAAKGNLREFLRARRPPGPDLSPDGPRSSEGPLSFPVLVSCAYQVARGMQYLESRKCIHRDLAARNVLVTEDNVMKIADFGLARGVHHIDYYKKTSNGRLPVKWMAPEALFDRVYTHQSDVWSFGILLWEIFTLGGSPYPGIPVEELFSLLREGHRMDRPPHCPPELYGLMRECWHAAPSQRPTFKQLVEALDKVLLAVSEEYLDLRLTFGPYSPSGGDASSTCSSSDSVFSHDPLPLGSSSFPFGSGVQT
Chain of BDNF/NT-3 growth factors receptor (Homo sapiens) (Q16620 32-822 limits assumed): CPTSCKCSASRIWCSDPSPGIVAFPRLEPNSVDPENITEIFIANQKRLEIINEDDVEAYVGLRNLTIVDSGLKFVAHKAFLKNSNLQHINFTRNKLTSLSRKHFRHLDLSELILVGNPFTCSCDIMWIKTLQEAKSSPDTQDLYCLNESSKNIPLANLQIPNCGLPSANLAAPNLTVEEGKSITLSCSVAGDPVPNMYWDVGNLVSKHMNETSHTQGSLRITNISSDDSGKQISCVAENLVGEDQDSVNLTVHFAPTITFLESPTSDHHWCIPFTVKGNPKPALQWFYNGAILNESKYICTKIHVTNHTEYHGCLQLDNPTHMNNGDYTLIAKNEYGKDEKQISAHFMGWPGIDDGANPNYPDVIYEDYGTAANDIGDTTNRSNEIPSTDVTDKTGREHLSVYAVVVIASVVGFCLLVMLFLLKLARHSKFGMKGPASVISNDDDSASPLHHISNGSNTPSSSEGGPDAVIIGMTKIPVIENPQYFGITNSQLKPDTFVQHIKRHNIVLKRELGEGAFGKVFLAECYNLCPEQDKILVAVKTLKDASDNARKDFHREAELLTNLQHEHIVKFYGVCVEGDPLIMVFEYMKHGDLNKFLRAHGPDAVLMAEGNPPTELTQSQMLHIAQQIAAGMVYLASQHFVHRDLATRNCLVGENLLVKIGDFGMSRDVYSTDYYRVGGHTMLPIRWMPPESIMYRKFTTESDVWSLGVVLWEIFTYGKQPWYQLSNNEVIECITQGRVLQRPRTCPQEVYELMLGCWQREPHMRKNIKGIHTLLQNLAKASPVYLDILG
Chain of Calcium/calmodulin-dependent protein kinase type 1 (Homo sapiens) (Q14012 whole entry, looked up): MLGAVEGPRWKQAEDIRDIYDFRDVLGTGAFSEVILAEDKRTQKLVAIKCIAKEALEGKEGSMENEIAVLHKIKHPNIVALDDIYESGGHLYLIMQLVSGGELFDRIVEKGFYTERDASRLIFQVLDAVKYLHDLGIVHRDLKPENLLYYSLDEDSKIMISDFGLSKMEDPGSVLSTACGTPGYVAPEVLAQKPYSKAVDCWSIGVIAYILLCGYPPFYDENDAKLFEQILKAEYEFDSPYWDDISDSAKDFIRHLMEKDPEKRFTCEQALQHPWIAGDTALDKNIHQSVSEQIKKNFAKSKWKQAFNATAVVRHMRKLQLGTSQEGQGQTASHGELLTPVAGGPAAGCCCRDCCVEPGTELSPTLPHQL

residual activity [1] [%]	residual activity [2] [%]	residual activity [3] [%]	residual activity [4] [%]	residual activity [5] [%]	residual activity [6] [%]	residual activity [7] [%]	residual activity [8] [%]	residual activity [9] [%]	residual activity [10] [%]	residual activity [11] [%]	residual activity [12] [%]	residual activity [13] [%]	SMILES
93	4	72	2	0	14	119	4	4	89	31	65	0	Cc1ccc2cc(-c3n[nH]c4ccc(NC5CCN(Cc6ccccc6)CC5)cc34)[nH]c2c1
103	5	38	0	1	29	105	1	6	36	16	63	2	Cc1ccc2cc(-c3n[nH]c4ccc(NC5CCNC5)cc34)[nH]c2c1 (stereo unspecified)
